These compounds were tested against T1, Mtb cytochrome bd (Mycobacterium tuberculosis, UniProt L7N662+O06139). Settings: read-out: % remaining OCR at 10 μM.
T1 sequence (L7N662 1-485): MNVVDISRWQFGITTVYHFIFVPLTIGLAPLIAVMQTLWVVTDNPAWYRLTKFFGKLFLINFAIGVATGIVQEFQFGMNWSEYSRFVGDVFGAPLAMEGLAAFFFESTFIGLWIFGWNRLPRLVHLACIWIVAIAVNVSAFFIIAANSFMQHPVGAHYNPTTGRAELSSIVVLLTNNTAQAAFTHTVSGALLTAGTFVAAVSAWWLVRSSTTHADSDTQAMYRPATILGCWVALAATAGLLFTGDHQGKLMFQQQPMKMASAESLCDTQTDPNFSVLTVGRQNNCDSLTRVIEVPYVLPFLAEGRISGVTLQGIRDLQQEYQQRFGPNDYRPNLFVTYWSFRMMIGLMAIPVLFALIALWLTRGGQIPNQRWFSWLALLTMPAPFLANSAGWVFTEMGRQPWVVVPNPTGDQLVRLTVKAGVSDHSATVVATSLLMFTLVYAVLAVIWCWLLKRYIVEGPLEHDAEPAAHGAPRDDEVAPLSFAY
T1 sequence (O06139 1-346): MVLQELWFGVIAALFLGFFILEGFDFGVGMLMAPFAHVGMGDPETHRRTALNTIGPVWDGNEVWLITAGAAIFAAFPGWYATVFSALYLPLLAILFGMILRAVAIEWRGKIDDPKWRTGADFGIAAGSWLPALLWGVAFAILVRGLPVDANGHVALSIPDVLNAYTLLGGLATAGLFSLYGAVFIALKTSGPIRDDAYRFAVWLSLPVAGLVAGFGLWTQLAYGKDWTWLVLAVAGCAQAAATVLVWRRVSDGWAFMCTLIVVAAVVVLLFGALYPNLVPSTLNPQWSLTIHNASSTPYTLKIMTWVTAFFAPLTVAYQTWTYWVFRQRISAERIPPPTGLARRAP
Assay type: biochemical

Compound	remaining activity at 10 µM [%]
CC(C)(c1cc(Br)c(OCC(O)CN2CCN(Cc3ccccc3)CC2)c(Br)c1)c1cc(Br)c(OCC(O)CN2CCN(Cc3ccccc3)CC2)c(Br)c1 (stereo not drawn) [F0777-1198]	51
C=CCSc1ncc(-c2ccccc2)n1-c1ccc(C)cc1 [F2964-1180]	50.6
CCOc1ccc(-c2nc(CSc3nc4ccccc4c(=O)n3CCCN3CCCC3=O)c(C)o2)cc1 [F3382-2259]	30.4

From doi:10.1101/2024.02.28.582612v1 (biorxiv, 2024)
